The record followed here is patent publication US20260275403A1, “METHOD FOR DETECTION OF NUCLEIC ACID END(S)” (INTODNA SPÓLKA AKCYJNA, priority 2023, published 2026).

The subject of one test is human cells U2OS WT. The procedure:
(§1) • 1. Proteinase K treatment of the biological material for 30 seconds (at a concentration of about 7 μg/mL (1:350 dilution of proteinase K stock concentration of 2.5 mg/mL), solution in PBS) at about 22° C. (i.e. room temperature) • 2. (optional) incubation with 1 mM PMSF in PBS for 5 minutes at about 22° C. • 3. (optional) rinse with PBS
(§2) • 5. Polymerase I reaction at 37° C. with polymerase I enzyme, […], biotin-16-dUTP, biotin-16-dCTP, and dGTP • 6. (optional) rinse with buffer
(§3) • 1. (optional) 60 min incubation in Navinci Blocking Buffer at 37° C. • 2. 60 min incubation in 1:100 rabbit monoclonal anti-PMS2 (or PMS1 or MLH1) antibody in Navinci Primary Antibody Diluent at about 22° C. • 3. (optional) PBS rinse • 4. 60 min incubation in 1:100 mouse monoclonal anti-biotin antibody in Navinci Primary Antibody Diluent at about 22° C. • 5. (optional) PBS rinse
(§4) • 1. PLA probes binding reaction at 37° C. (Navinci PLA reagents and standard protocol) • 2. Reaction A at 37° C. • 3. Reaction B at 37° C. • 4. Reaction C at 37° C.
In vehicle conditions the operation medium was changed to a fresh one with supplementation of 0.1% sterile DMSO and left to rest for the incubation time.

The subject of a further test is HAP1 cells (WT and KO). Here is the method:
as §1, §2, §3, §4
After 24 h of rest the operation medium was changed to a fresh one with supplementation of 1 μM or 10 μM 6-Tioguanine (6TG) in DMSO and left to rest for the incubation time 48h (final DMSO concentration was 0.1% in medium in each experimental condition). […]

The subject of a further test is HAP1 PMS2 KO cells. To be noted: 6TG 1 uM 48 h treatment. The procedure: as §1, §2, §3
(§5) • 1. PLA probes binding reaction at 37° C. (Navinci PLA reagents and standard protocol) • 2. Reaction A at 37° C. • 3. Reaction B at 37° C. • 4. Reaction C at 37° C. […]
(§6) When cell confluence reached 90%, cells were washed with sterile PBS (without Ca^2+ and Mg^2+) and incubated for 2 min with 2 mL of 0.25% trypsin solution with EDTA. Trypsin was inactivated with the culture medium containing FBS and the collected cells were counted in the Burker chamber. […]

The next test deals with HAP1 parental cells. The following applies: 6TG at a higher concentration. Here is the method:
as §1, §2, §3, §5, §6

For test [1], the system named is NCI-H661 (i.e. HR proficient cell line). The test can be described thus: dSTRIDE-RAD51 (dSTRIDE-HR), RAD51-associated double-strand DNA breaks. The test is classed as cell-based, human. To be noted: 48h; for number of dSTRIDE-HR (RAD51) foci: NCI-H661, 5 μM or 50 μM etoposide. Here is the method: (§7) • 1. […] (i.e. room temperature) • 2. […] (optional) rinse with PBS
(§8) • 1. TdT reaction at 37° C. with BrdU and TdT enzyme • 2. (optional) rinse with PBS
(§9) • 6. […] 7. […] (optional) PBS rinse • 9. […] (optional) PBS rinse
as §4
(§10) NCI-H1693 and NCI-H661 were purchased from ATCC cell culture collection (18.05.2022). The detailed cell culture description is listed on Table 16. […] The master bank collection was prepared form #1 passage.
(§11) (also included passage number).
(§12) The labelling was performed according to protocols described in Examples 2 or 3.

For test [2], the system named is NCI-H1693 (i.e. HR deficient cell line). The description is as above. Type of test: cell-based, human. To be noted: NCI-H1693, 5 μM or 50 μM etoposide, 48h. Here is the method:
as §7, §8, §9, §4, §10, §11, §12

Test [3] concerns NCI-H1693 (i.e. HR deficient) cell line. Briefly: dSTRIDE-RPA, RPA70-associated double-strand DNA breaks. Type of test: cell-based, human. To be noted: 48h. The procedure:
as §8
(§13) • 1. […] (optional) PBS rinse • 4. […] (optional) PBS rinse
as §4, §10, §11, §12

Test [4] concerns NCI-H661 (i.e. HR proficient cell line). The description is as above. To be noted: NCI-H661, 5 μM or 50 μM etoposide, 48h. Type of test: cell-based, human. The procedure: as §8, §13, §4, §10, §11, §12
Test [5] relates to NCI-H1693 (i.e. HR deficient) cell line. Briefly: dSTRIDE, double-strand DNA breaks. Type of test: cell-based, human. The following applies: 48h; for number of double-strand DNA breaks detected by dSTRIDE: NCI-H1693, 5 μM or 50 μM etoposide. Here is the method:
as §10, §11, §12

Test [6] deals with NCI-H661 (i.e. HR proficient cell line). Briefly: dSTRIDE, double-strand DNA breaks. The test is classed as cell-based, human. To be noted: 48h; for number of double-strand DNA breaks detected by dSTRIDE: NCI-H661, 5 μM or 50 μM etoposide. The procedure:
as §10, §11, §12

Where [7] appears, read: NCI-H1693 versus NCI-H661, 50 uM etoposide.

Entries after “also recorded” stand apart in the source; their conditions may differ.

Regarding `Nc1nc2[nH]cnc2c(=S)[nH]1` [6TG, 6-Tioguanine], the “maximum number of sSTRIDE MMR foci per nucleus” value in the test with human cells U2OS WT (Sample 4, 6TG treated U2OS WT cells, 48 h (6TG 100nM per Table 3), antigen retrieval 1 (proteinase K 2 min)) is reported as 3 foci per nucleus. Further, the “response in number of foci detected after 6TG treatment (quantitative image analysis)” value with human cells U2OS WT (U2OS WT, 6TG 48 h, antigen retrieval 1 (proteinase K 2 min)) was “no response”. The “number of foci in the nucleus after treatment” value in the test on human cells U2OS WT (U2OS WT, 48 h 6TG in different concentration, Abcam antibody, antigen retrieval method v2) is on record as “did not significantly increase number of foci”. Besides, in the test on human cells U2OS WT (U2OS WT, Abcam antibody, 6TG 250 nM-10 μM, 24 h or 48 h, antigen retrieval method 2), the “sSTRIDE MMR readouts level of 6TG treated cells versus non-treated samples” value is recorded as “lower than in the non-treated samples”. The “sSTRIDE-MMR (MLH1) readouts” value with HAP1 cells (WT and KO) (HAP1 PMS2 WT and KO, 6TG treatment) is on record as “increase in sSTRIDE-MMR (MLH1) readouts”. For the same compound, the “PMS1 at SSBs (sSTRIDE-PMS1)” value in the test with HAP1 cells (WT and KO) (after treatment with 6TG) is given as “engaged in MMR processes”. Besides, the “number of sSTRIDE-MMR fluorescence foci” value in the test with HAP1 PMS2 KO cells is on record as “does not result in a significant increase”. The “level of sSTRIDE-MMR signals” value with HAP1 parental cells is “elevated level of sSTRIDE-MMR signals”.

As for `COc1cc([C@@H]2c3cc4c(cc3[C@@H](O[C@@H]3O[C@@H]5CO[C@@H](C)O[C@H]5[C@H](O)[C@H]3O)[C@H]3COC(=O)[C@H]23)OCO4)cc(OC)c1O` [etoposide, Etoposide], the “number of dSTRIDE-HR (RAD51) foci” value is given as “dose-dependent increase; also recorded: dose-dependent response” in [1] and “increase in the number of visible fluorescence foci” in test [1] (listed as Etoposide). The “number of RAD51-associated double-strand DNA breaks detected by dSTRIDE-RAD51” value in test [1] (NCI-H661, 50 uM etoposide) was “significant increase”; in test [2], “no response”; in test [2] (listed as Etoposide), “did not results in a detectable increase; also recorded: no response”. Also, the “number of RPA-associated double-strand DNA breaks detected by dSTRIDE-RPA” value in test [3] (NCI-H1693, 5 μM or 50 μM etoposide) is on record as “dose-dependent increase in the number of dSTRIDE-RPA foci”; in test [4], “dose-dependent increase in the number of dSTRIDE-RPA foci; also recorded: dose-dependent response”. For the same compound, the “dSTRIDE-RPA foci, cell line comparison” value in test [3] (setting [7]) was “more dSTRIDE-RPA foci detected in HR deficient cell line”. Moreover, the “number of double-strand DNA breaks detected by dSTRIDE” value in test [5] is on record as “increase in the number of double-strand DNA breaks; also recorded: dose-dependent increase in the number of DSBs; also recorded: dose-dependent formation of double-strand DNA breaks”; in test [5] (listed as Etoposide) it was “efficiently induces DSBs”; in test [6], “dose-dependent increase in the number of DSBs; also recorded: dose-dependent response”; in test [6] (listed as Etoposide) it was “efficiently induces DSBs”. Further, the “increase in DSBs (dSTRIDE), cell line comparison” value is reported as “comparable in both cell lines” in test [5] (NCI-H1693, 5 um etoposide) and “comparable in both cell lines” in test [6] (NCI-H661, 5 um etoposide). The “number of DSBs (dSTRIDE), cell line comparison” value in test [5] (setting [7]) was “more profound increase; also recorded: more DSBs are induced in HR deficient than in HR proficient cell lines”.
